Patent US9587220B2, “Method for inducing cardiac differentiation of pluripotent stem cell” (Kyoto University, priority 2012, dated 2017)
“Also recorded” adds a separate entry of the source.

Tests used:
[1] = test system: IMR90-1 hiPSCs; experiment: Beating colonies of hiPSCs (IMR90-1) in serum-containing cardiac differentiation; format: cell-based, human; details: for proportions of beating colonies: hiPSCs; for proportions of beating colonies with BIO: with 5 μM BIO (GSK3β inhibitor)
Protocol: Confluent hESCs and hiPSCs were gently detached with CTK solution and transferred into Petri dishes (BD Biosciences) with Primate ES Cell Culture Medium (ReproCELL, Japan). Cells were held in suspension culture for 8-24 h to form aggregates. The sizes of hPSC aggregates (0.3-1 mm in diameter) are important for efficient differentiation. Following suspension culture, cell aggregates were attached to culture dishes (3-10×10^5 cells cm^−2) in cardiac differentiation medium: IMDM (Sigma), containing 20% FBS (Gibco), 1% MEM non-essential amino acid solution (Sigma), 1% Penicillin-Streptomycin (Gibco), 2 mM L-glutamine (Sigma), 0.001% 2-Mercaptoethanol (Gibco), and 0.005N NaOH, with 10 ng ml^−1 BMP4 (R&D Systems). The medium was changed to cardiac differentiation medium with 10 μM KY02111 and/or other WNT inhibitors added on Day 3 (hiPSC lines) or Day 4 (human or monkey ESC lines); XAV939 (Wako, Japan), IWP-2 (Santa Cruz Biotechnology), IWR-1 (Merck4Bioscience), IGFBP4 (R&D Systems), Dkk1 (R&D Systems) and the mixture of bFGF (R&D Systems), BMP4 (R&D Systems), VEGF (R&D Systems), DKK1 (R&D Systems), and Activin A (R&D Systems) (Non-patent literature 16). Medium was changed every 2-3 d. KY02111 and other WNT inhibitors were added until Day 9 for hiPSC lines and the monkey ESC line, or Day 14 for hESC lines. On Day 15, cardiac cell colonies on dishes were incubated with protease solution (0.1% collagenase type I, 0.25% trypsin, 1 U ml^−1 DNase I, 116 mM NaCl, 20 mM HEPES, 12.5 mM NaH2PO4, 5.6 mM glucose, 5.4 mM KCl, and 0.8 mM MgSO4, pH 7.35) for 0.5-2 h, until all cardiac colonies were detached from the bottom of the wells. The detached cardiac colonies were transferred into 15 ml tubes with fresh cardiac differentiation medium and precipitated by gravity, and the supernatant was removed by aspiration. The cardiac colonies were then transferred into Ultra-low culture dishes (Corning, 3261) or 6-well plates (Corning, YO-01835-24) in cardiac differentiation medium without both serum and NaOH. The floating cardiac colonies were maintained for more than 1 month, and the media were changed every 5 d. A differentiation method of mouse ESC (R1 line) was carried out as previously described^46, and KY02111 was added during Days 3-6. Beating colonies were counted on Day 9.

[2] = test system: TCF promoter activity (canonical WNT signaling) in IMR90-1 hiPSCs; experiment: TOPflash TCF reporter-luciferase assay in hiPSCs; format: cell-based, human; details: 10 μM, with 60 ng/ml Wnt3a or 3 μM BIO
Protocol: For the TCF reporter assay, IMR90-1 hiPSCs were cultured in the serum-containing differentiation culture, as described above, and transfected with TOPFlash plasmid (Millipore 21-170) and pRL-SV40 plasmid (Renilla luciferase transfection control, Promega E1980) on Day 2, using FuGENE HD transfection Reagenet (Promega E2311). After 24 h, 10 μM KY02111, 10 μM XAV939, or 10 μM IWP-2 was added to the medium, along with either 60 ng ml^−1 of mouse Wnt3a (Wako 232-02421) or 3 μM BIO. After 48 h of transfection (Day 4), luciferase activities were measured using a Dual-Luciferase Reporter 1000 Assay System kit (Promega E1980) and a 2030 ARVO X3 plate reader (PerkinElmer). Luciferase activities were normalized to the luminescence of the transfection control, Rennila luciferase, according to the kit protocol. For experiments using HEK293 cells, the cells were cultured in 10% FBS DMEM medium, and transfected with TOPflash and pRL-SV40 plasmid, using FuGENE HD. After 24 h, the transfected cells were seeded onto 96-well plates (10,000 cells well^−1) in medium containing 10 μM KY02111, 10 μM XAV939, or 10 μM IWP-2, along with 3 μM BIO or 60 ng ml^−1 mouse Wnt3a. Luciferase activities were measured 48 h after transfection by the procedure described above.

COc1ccc(CCC(=O)Nc2nc3ccc(Cl)cc3s2)cc1OC [KY02111, 2-(3-(3,4-dimethoxyphenyl)propanamide)-6-chlorobenzothiazole]
promotion of cardiac differentiation of hiPSCs compared with other WNT inhibitors ([1]; FIG. 3d): most effective
proportion of beating colonies after subculture ([1]; floating culture of beating colonies, FIG. 6): up to 90%
proportions of beating colonies ([1]; FIG. 3d): 87%
day on which beating colonies emerged ([1]; time course, FIG. 6): 10 days
day until which cardiac colonies continued beating ([1]; time course, FIG. 6): ≥ 50 days
proportions of beating colonies with BIO ([1]; FIG. 3d): did not cancel
TCF promoter (luciferase) activity elevated by Wnt3a or BIO [2]: clearly reduced luciferase activities; also recorded: inhibited

Oc1nc(-c2ccc(C(F)(F)F)cc2)nc2c1CSCC2 [XAV939, reference compound]
proportions of beating colonies ([1]; FIG. 3d): 7.5%
proportions of beating colonies with BIO ([1]; FIG. 3d): completely inhibit
TCF promoter (luciferase) activity elevated by Wnt3a or BIO [2]: clearly reduced luciferase activities; also recorded: inhibited

Cc1ccc2nc(NC(=O)CSc3nc4c(c(=O)n3-c3ccccc3)SCC4)sc2c1 [IWP-2, reference compound]
proportions of beating colonies ([1]; FIG. 3d): 37%
proportions of beating colonies with BIO ([1]; FIG. 3d): completely inhibit
TCF promoter (luciferase) activity elevated by Wnt3a or BIO [2]: didn't inhibit
